# From US10011874B2, “Androgen receptor mutation” (NOVARTIS AG, priority 2013, dated 2018)
# Assays:
# [1] = system: T878A-bearing mutant alleles of AR (KLK3 expression); test: qPCR of KLK3 in LNCaP engineered to express T878A-bearing mutant ARs; assay type: cell-based; conditions: 10 μM; 10% FCS; FIG. 15
# Procedure: […]. […] Infected cells were maintained in neomycin for 3 weeks.
# For spontaneous clones: 200 k cells were seeded in 6 well plates in RPMI 1640 supplemented with 10% FCS for 2 d prior to treatment with various compounds for 24 h. Alternatively, for experiments involving androgen-depletion, 200 k cells were seeded and grown in 6 well plates in phenol-free RPMI 1640 supplemented with 10% FCS for 2 d. […] Similar protocols were applied for genetically engineered lines except that cells were pretreated with Dox for at least 2 d prior to treatment with various compounds to allow sufficient transgene expression. Total RNA was extracted using the RNeasy plus mini kit (Qiagen, cat#74136) according to the manufacturer's instructions. 1-2 μg of total RNA was used for cDNA synthesis using a high capacity cDNA reverse transcription kit (Applied Biosystems, cat#4368813). cDNA from each sample was diluted 15-20 fold and real-time was performed in triplicates using gene-specific primers and FastStart Universal Probe Master Mix (Rox) (Roche Applied Science) on an ABI 7900HT series PCR machine. Expression levels were normalized to TBP expression. All analysis was performed using the SDS2.3 software. […]
# [2] = system: LNCaP lines engineered to express AR-F877L/T878A; test: Long-term colony formation assay, LNCaP expressing AR-F877L/T878A; assay type: cell-based; conditions: for growth sensitivity compared with bicalutamide: AR-F877L/T878A LNCaP lines, FIG. 6C colony formation
# Procedure: (§1) Codon-optimized cDNAs encoding WT or mutant ARs were synthesized (DNA2.0) and subcloned into the pLKO-TREX-HA-Neo (Invitrogen). […] Virus was harvested 2-3 d after transfection, filtered, and used to infect LNCaP, MyC-CaP and VCaP cell cultures in the presence of 8 μg ml-1 polybrene. Infected cells were maintained in neomycin for 3 weeks. In all cases, at least 1000 independent clones were pooled to generate stable cell lines to avoid clonal variations. Stable cell lines infected with control vectors were generated in parallel for use as experimental controls.
# (§2) 5000-7500 cells (spontaneous resistant or engineered lines) were seeded in 6-well plates in media supplemented with 10% FCS. […] Viable colonies were stained after 3-4 week cultures. Following media aspiration, 0.5% crystal violet was added to the wells and left overnight. The next morning, crystal violet solution was removed and wells were carefully washed with ddH2O to remove residual staining solution. The plates were air-dried overnight prior to imaging.
# [3] = system: strongly resistant LNCaP clones #1, 15, 19, 24 (AR F877L/T878A); test: Short-term CellTiter-Glo growth assay, strongly resistant LNCaP clones; assay type: cell-based; conditions: for growth sensitivity compared with bicalutamide: strongly resistant clones, FIG. 6B
# Procedure: (§3) Cells were re-seeded into 150 cm^2 dishes supplemented with the appropriate treatments once each week. Media and compound was replaced for dish 4 once every week. Once resistant clones emerged, media was aspirated from dish 4. […] Cells from control dishes 1-3 were maintained until resistant clones were cryopreserved to maintain a constant culture time for control and experimental lines.
# (§4) 1000 cells (spontaneous resistant or engineered lines) were seeded in media supplemented with 10% FCS. For spontaneous resistant clones, increasing concentrations of compounds were added on the day of seeding whereas for engineered lines, compounds were added after 2 d of doxycycline treatment. In all cases growth assays were performed using CellTiter-Glo Luminescent Cell Viability Assay Reagent (Promega, cat# G7573) 7 d following compound treatment.
# [4] = system: W742L and W742C mutant ARs; test: AR luciferase reporter transactivation assay, W742 mutants; assay type: cell-based, human; conditions: 10 μM, FIG. 12
# Procedure: Reporter assays were performed as follows: 3×10^5 HEK293T cells were seeded in 6-well plates in DMEM supplemented with 10% FCS and 1×NEAA 24 h prior to transfection. Alternatively, 1×10^6 VCaP cells or 3×10^5 PC3 cells were seeded in 6-well plates in appropriate media supplemented with 10% CSS 24 h prior to transfection. […] Cells were collected ˜16 h following treatment and assayed for luciferase activity using the Glomax 96 microplate luminometer (Promega). Firefly activity was normalized to Renilla using the Dual Luciferase Assay reagent (Promega, E1910). All experiments were performed at least three times.
# [5] = system: LNCaP lines engineered to express W742C/T878A AR
# Procedure: as §1, §2
# [6] = system: LNCaP cells, controls (C1-C3); test: cells; conditions: Homo sapiens, read-out: aggregate IC50, growth inhibition
# Procedure: as §3, §4
# [7] = system: weakly resistant LNCaP clones #9, 10 and 14; test: Short-term CellTiter-Glo growth assay, weakly resistant LNCaP clones; assay type: cell-based; conditions: Homo sapiens, read-out: aggregate IC50, growth inhibition
# Procedure: as §3, §4
# [8] = system: W742C/T878A mutant AR (KLK3 expression); assay type: cell-based
# Procedure: as §1
# [9] = randomized clinical trial; cited from earlier work
# [10] = system: E2F1 target genes DHFR and TK1 in control line; test: qPCR of E2F1 target genes in control line; assay type: cell-based; conditions: 10 μM, 24 h
# Procedure: (§5) For spontaneous clones: 200 k cells were seeded in 6 well plates in RPMI 1640 supplemented with 10% FCS for 2 d prior to treatment with various compounds for 24 h. Alternatively, for experiments involving androgen-depletion, 200 k cells were seeded and grown in 6 well plates in phenol-free RPMI 1640 supplemented with 10% FCS for 2 d. […] Similar protocols were applied for genetically engineered lines except that cells were pretreated with Dox for at least 2 d prior to treatment with various compounds to allow sufficient transgene expression. Total RNA was extracted using the RNeasy plus mini kit (Qiagen, cat#74136) according to the manufacturer's instructions. 1-2 μg of total RNA was used for cDNA synthesis using a high capacity cDNA reverse transcription kit (Applied Biosystems, cat#4368813). cDNA from each sample was diluted 15-20 fold and real-time was performed in triplicates using gene-specific primers and FastStart Universal Probe Master Mix (Rox) (Roche Applied Science) on an ABI 7900HT series PCR machine. Expression levels were normalized to TBP expression. All analysis was performed using the SDS2.3 software. The following gene-specific primers (Invitrogen) were used: AR (Hs00171172_m1), KLK3 (Hs02576345_m1), NKX3-1 (Hs00171834_m1), TMPRSS2 (Hs01120965_m1), SLC45A3 (Hs00263832_m1), TBP (Hs00427620_m1), DHFR (Hs00758822_s1) and TK1 (Hs01062125_m1).
# [11] = system: AR pathway activity in strongly resistant clones; test: Microarray clustering and GSEA of AR pathway activity, strongly resistant clones; assay type: cell-based; conditions: 10 μM, 24 h
# Procedure: (§6) Total RNA was isolated from cells using the Qiagen RNeasy Kit. RNA integrity and purity were assessed with the RNA 6000 Nano LabChip system on a Bioanalyzer 2100 (Agilent Technologies). Generation of labeled cDNA and hybridization to Affymetrix GeneChip Human Genome U133 Plus 2.0 Array (Affymetrix Inc.) was performed using standard protocols as previously described (8). Probesets from the Affymetrix gene expression datasets were normalized using MASS with a trimmed-mean target of 150, and log 2-transformed. Probesets were then filtered for inclusion only if their maximum value over different samples was at least 5. […] This regression was used to generate nominal p-values and regression coeffecients (i.e. fold-changes).
# CYP2C9 = conditions: in humans; cited from earlier work
# [12] = system: AR localization in strongly resistant clone #1; test: Nuclear/cytoplasmic fractionation of AR, strongly resistant clone #1; assay type: cell-based; conditions: 10 μM, 24 h
# Procedure: (§7) The next day, cells were harvested with trypsin, centrifuged at 500×g for 5 min, washed with PBS, transferred to 1.5 ml microcentrifuge tubes and pelleted by centrifugation at 500×g for 2-3 min. […] Briefly, the pellet was resuspended in 500 μl of ice-cold Cer I buffer and incubated on ice for 10 min. Following incubation, 27.5 μl of ice-cold Cer II buffer was added, vortexed and incubated for 1 min on ice. The lysate/Cer I/II mixture was vortexed again, centrifuged at 14000×g for 5 min and the cytoplasmic extract (supernatant) was transferred to pre-chilled tubes. The insoluble pellet, which contains nuclei, was resuspended in ice-cold 250 μl NER buffer, vortexed and placed on ice. Sample was vortexed for 15 s every 10 min for a total of 40 min. Following incubation, samples were centrifuged at 14000×g for 10 min. Supernatant, which contains the nuclear extract, was transferred to pre-chilled tubes. These samples were processed for immunoblot analysis as described above.
# [13] = system: AR pathway activity in control and weakly resistant lines; test: Microarray clustering and GSEA of AR pathway activity, control and weakly resistant lines; assay type: cell-based; conditions: 10 μM, 24 h
# Procedure: as §6
# CYP3A4 = conditions: in humans; cited from earlier work
# LNCaP cells = test: Culture of LNCaP cells with MDV3100; assay type: cell-based; conditions: short-term culture (<1.5 months); FCS+MDV relative to FCS
# Procedure: as §3, with “2 million LNCaP cells were seeded into four 150 cm^2 tissue culture dishes in phenol red-free RPMI 1640 media supplemented with 10% FCS. […] Cells were” for “Cells were”
# [14] = system: AR localization in control (C1) LNCaP line; test: Nuclear/cytoplasmic fractionation of AR, control line C1; assay type: cell-based; conditions: 10 μM, 24 h
# Procedure: as §7
# CYP2C19 = conditions: in humans; cited from earlier work
# [15] = system: AR target genes KLK3, NKX3-1 and SLC45A3 in strongly resistant clones; test: qPCR of AR target genes in strongly resistant clones; assay type: cell-based; conditions: 24 h
# Procedure: as §5
# [16] = system: LNCaP control (C1) tumors; test: In vivo tumorigenesis assay, control C1 xenografts; design: species or system castrated male nu/nu mice
# Procedure: 10 million LNCaP cells (C1, clone #1) mixed 1:1 with matrigel were injected subcutaneously into the flank of castrated 7-8 week male nu/nu mice. […]. Tumors were measured using calipers and tumor volumes were calculated using length×width/2. Data is expressed as mean±SEM. All animal experiments were performed in compliance with the guidelines of Novartis Biomedical Research Animal Care and Use Committee protocols and regulations.
compound,measurement,setting,value
CC(C)(O)C(=O)Nc1ccc([N+](=O)[O-])c(C(F)(F)F)c1 [hydroxyflutamide],agonist/antagonist behaviour on KLK3 expression,[1],antagonist-to-agonist switch
CC(=O)c1c(C)c2cnc(Nc3ccc(N4CCNCC4)cn3)nc2n(C2CCCC2)c1=O [PD0332991],growth sensitivity compared with bicalutamide,[2],as sensitive
same,growth sensitivity compared with bicalutamide,[3],as sensitive
"CC(O)(CS(=O)(=O)c1ccc(F)cc1)C(=O)Nc1ccc(C#N)c(C(F)(F)F)c1 (stereo not drawn) [bicalutamide, N-[4-cyano-3-(trifluoromethyl)phenyl]-3-[(4-fluorophenyl)sulfonyl]-2-hydroxy-2-methylpropanamide]",agonist/antagonist behaviour in AR reporter assay,[4],antagonist-to-agonist switch
same,growth under treatment on expression of W742C/T878A allele,[5],significantly rescued growth
same,growth under treatment on expression of F877L/T878A allele,[2],remained sensitive
same,IC50,[6],1 µM
same,IC50,[7],> 10 µM
same,IC50,"[3]; Homo sapiens, LNCaP, read-out: aggregate IC50, growth inhibition",5 µM
same,agonist/antagonist behaviour on KLK3 expression,[8],antagonist-to-agonist switch
"CNC(=O)c1ccc(N2C(=S)N(c3ccc(C#N)c(C(F)(F)F)c3)C(=O)C2(C)C)cc1F [MDV3100, 4-{3-[4-cyano-3-(trifluoromethyl)phenyl]-5,5-dimethyl-4-oxo-2-sulfanylideneimidazolidin-1-yl}-2-fluoro-N-methylbenzamide]","incidence of most common adverse drug reactions (asthenia/fatigue, back pain, diarrhea, arthralgia, hot flush etc.)",[9],≥ 5%
same,expression of E2F1 target genes DHFR and TK1,[10],suppressed expression
same,AR pathway activity upon treatment,[11],insignificant change
same,CYP2C9 induction,CYP2C9,moderate
same,nuclear AR localization,[12],not significantly altered
same,AR pathway activity upon treatment,[13],reduced AR pathway activity
same,CYP3A4 induction,CYP3A4,strong
same,effect of short-term culture on cell population,LNCaP cells,population-wide stasis
same,nuclear AR localization,[14],significantly impaired
same,CYP2C19 induction,CYP2C19,moderate
same,"effect on expression of AR target genes KLK3, NKX3-1 and SLC45A3","[15]; 10 μM, 10% FCS, FIG. 2c",blunted effects
same,KLK3 expression,"[15]; media stripped of androgens (10% CSS), alone or with agonist",significantly enhanced KLK3 expression
same,body weight during treatment period,"[16]; control 1 xenograft mice, 30 mg/kg daily",No significant body weight loss
same,tumor growth under treatment,"[16]; control C1 tumors, 30 mg/kg daily",immediate stasis
same,"tumor take rates, treated vs. vehicle","[16]; control cells C1, 9 of 15 vs. 10 of 15",indistinguishable
"CN(C)C(=O)c1cc2cnc(Nc3ccc(N4CCNCC4)cn3)nc2n1C1CCCC1 [LEE011, 7-Cyclopentyl-2-(5-piperazin-1-yl-pyridin-2-ylamino)-7H-pyrrolo[2,3-d]pyrimidine-6-carboxylic acid dimethylamide]",growth sensitivity compared with bicalutamide,[2],as sensitive
same,growth sensitivity compared with bicalutamide,[3],as sensitive
